We go through 22 molecules from ChEMBL document CHEMBL4017471, “Discovery of novel aminobenzisoxazole derivatives as orally available factor IXa inhibitors” (Bioorg Med Chem Lett, 2017).

Activity calls are given as the source filed them. The rule behind the calls is not given here.

In general, Papp refers to a coefficient for how fast a substance crosses the barrier. As usually defined, the fraction unbound is free concentration divided by total concentration. Higher therefore signals weak binding. What is called IC50 is the concentration at which inhibition is half-maximal. Higher therefore signals lower potency. As usually defined, the Cmax is the maximum level reached in the sampled fluid or tissue.

Series [1] is described as follows: Apparent permeability of the compound at 5 uM after 5 hrs by PAMPA. It counts as physicochemical. A general note: In PAMPA a lipid-coated filter parts donor from acceptor wells.
A short description of series [2]: Unbound plasma concentration in human at 10 uM measured after 4 hrs by equilibrium dialysis method. It counts as ADME, cell-free. (In general: In equilibrium dialysis only unbound substance equilibrates across the membrane.)
The test system of series [3] is Plasma. In words: Anticoagulant activity in human plasma assessed as concentration required to double activated partial thromboplastin time. In kind it is functional.
Series [4] deals with Coagulation factor X (Homo sapiens, UniProt P00742).
Chain of Coagulation factor X (P00742 41-179 limits assumed): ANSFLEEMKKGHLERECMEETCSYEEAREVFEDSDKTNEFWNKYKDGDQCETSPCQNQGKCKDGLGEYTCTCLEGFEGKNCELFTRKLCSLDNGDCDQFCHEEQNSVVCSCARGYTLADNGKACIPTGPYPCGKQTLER
Chain of Coagulation factor X (P00742 235-488 limits assumed): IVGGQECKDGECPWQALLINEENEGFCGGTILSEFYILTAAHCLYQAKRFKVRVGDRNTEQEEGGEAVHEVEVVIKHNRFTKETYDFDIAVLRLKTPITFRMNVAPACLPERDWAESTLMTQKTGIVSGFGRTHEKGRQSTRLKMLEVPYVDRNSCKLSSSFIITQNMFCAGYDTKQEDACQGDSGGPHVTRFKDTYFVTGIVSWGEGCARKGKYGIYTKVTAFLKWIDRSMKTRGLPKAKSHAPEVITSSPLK
Description: Inhibition of human coagulation factor 10a
Series [5] concerns the target Coagulation factor IX (Homo sapiens, UniProt P00740).
Series [6] can be described thus: Cmax in rat at 1 mg/kg, po administered as cassette dose. Also on record: dose 1 mg/kg, route oral. In kind it is ADME, organism-based. The following applies: in vivo.
Series [7] concerns Rattus norvegicus. The series can be described thus: Effect on prothrombin time in rat at 1 to 100 mg/kg, po measured after 2 hrs. It counts as functional, organism-based.
Series [8] relates to Rattus norvegicus. In words: Anticoagulant activity in po dosed rat assessed as prolongation of activated partial thromboplastin time measured after 2 hrs. In kind it is functional, organism-based.

Chain of Coagulation factor IX (P00740 47-191 limits assumed): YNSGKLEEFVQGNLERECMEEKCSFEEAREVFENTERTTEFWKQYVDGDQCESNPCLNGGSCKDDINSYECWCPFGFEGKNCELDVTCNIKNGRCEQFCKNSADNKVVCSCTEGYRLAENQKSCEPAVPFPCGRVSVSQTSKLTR
Chain of Coagulation factor IX (P00740 227-461 limits assumed): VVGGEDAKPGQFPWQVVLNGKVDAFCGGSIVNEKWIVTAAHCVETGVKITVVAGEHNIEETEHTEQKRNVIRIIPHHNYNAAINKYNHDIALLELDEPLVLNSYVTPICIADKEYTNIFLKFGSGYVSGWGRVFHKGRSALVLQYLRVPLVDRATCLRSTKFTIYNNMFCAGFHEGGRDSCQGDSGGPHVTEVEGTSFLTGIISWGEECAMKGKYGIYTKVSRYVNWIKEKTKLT

Take `Nc1noc2c(N3CC[C@@H](NC(=O)c4ccc(-c5cncnc5)cc4Cl)C3)ncc(Cl)c12`: the Papp at 5 h, 5 µM in series [1] amounted to 9.4 ×10⁻⁶ cm/s. This molecule also showed a fraction unbound at 4 h, 10 µM in series [2] of 0.002. For the same molecule, in series [3], the 2aPTT came to 101 µM. For the same molecule, the values for the IC50 in series [4] and in series [5] were greater than 100000 nM and 26 nM, respectively. In series [6], the concentration peaked (Cmax) at 380 ng/mL.

With `Nc1noc2c(N3CC[C@@H](NC(=O)c4ccc(-n5cnnc5)cc4Cl)C3)cc(Cl)c(Cl)c12`, the IC50 in series [4] is 29000 nM; in series [5], 47 nM.

`Cn1cc(-c2ccc(C(=O)N[C@@H]3CCN(c4ncc(Cl)c5c(N)noc45)C3)c(Cl)c2)ccc1=O`: in series [1], the Papp at 5 h, 5 µM was 6.5 ×10⁻⁶ cm/s. This molecule also had a fraction unbound at 4 h, 10 µM in series [2] of 0.004. In addition, in series [3], the 2aPTT worked out at 85 µM. For the same molecule, the figures for the IC50 in series [4] and in series [5] were 20000 nM and 18 nM, respectively. For the same molecule, the Cmax in series [6] came out at 510 ng/mL.

In the case of `Nc1noc2c(N3CC[C@@H](NC(=O)c4ccc(-n5cnc6ccccc65)cc4Cl)C3)ncc(Cl)c12`, in series [1], the Papp at 5 h, 5 µM worked out at 3.3 ×10⁻⁶ cm/s. The molecule also had a fraction unbound at 4 h, 10 µM in series [2] of 0.001. Moreover, the 2aPTT in series [3] was 72 µM. The IC50 in series [4] was greater than 100000 nM; in series [5] it was 32 nM. The molecule also yielded a Cmax in series [6] of 110 ng/mL.

Turning to `Nc1noc2c(N3CCC(NC(=O)c4ccc(-n5cnnc5)cc4Cl)C3)cc(Cl)cc12` (racemic), the results for the IC50 in series [4] and in series [5] were greater than 100000 nM and 18 nM, respectively.

For `Nc1noc2c(N3CCC(NC(=O)c4ccc(-n5cnnc5)cc4Cl)C3)cccc12` (racemic), the IC50 in series [4] is greater than 100000 nM; in series [5], 98 nM.

Consider `Cc1cc(N2CC[C@@H](NC(=O)c3ccc(-n4cnnc4)cc3Cl)C2)c2onc(N)c2c1Cl`, for which the IC50 came to 22000 nM in series [4] and 62 nM in series [5].

Take `Nc1noc2c(N3CC[C@@H](NC(=O)c4ccc(-n5cnnc5)cc4Cl)C3)ccc(Cl)c12`: the IC50 in series [4] is greater than 30000 nM; in series [5], 32 nM.

As to `Nc1noc2c(N3CC[C@@H](NC(=O)c4ccc(-n5cnc6ncccc65)cc4Cl)C3)ncc(Cl)c12`, the Papp at 5 h, 5 µM in series [1] was found to be 3.1 ×10⁻⁶ cm/s. Further, the fraction unbound at 4 h, 10 µM in series [2] stood at 0.008. Further, the 2aPTT in series [3] worked out at 28 µM. The IC50 in series [4] was determined as 25000 nM; in series [5], 13 nM.

Take `Nc1noc2c(N3CCC(NC(=O)c4ccc(-n5cnnc5)cc4Cl)C3)nccc12` (racemic): the IC50 is greater than 100000 nM in series [4] and 89 nM in series [5].

For the molecule `Nc1noc2c(N3CC[C@@H](NC(=O)c4ccc(-c5ncccn5)cc4Cl)C3)ncc(Cl)c12`, the IC50 in series [4] is greater than 100000 nM; in series [5] it was greater than 3000 nM.

For `Cc1ccc(N2CCC(C)(NC(=O)c3ccc(-n4cnnc4)cc3Cl)C2)c([N+](=O)[O-])c1` (stereo unspecified), the IC50 in series [4] was greater than 100000 nM; in series [5], 2200 nM.

As for `Nc1noc2c(N3CC[C@@H](NC(=O)c4ccc(-n5cnnc5)cc4Cl)C3)ccc(F)c12`, the IC50 is greater than 100000 nM in series [4] and 172 nM in series [5].

Take `Cc1cc2c(N)noc2c(N2CC[C@@H](NC(=O)c3ccc(-n4cnnc4)cc3Cl)C2)n1`: the IC50 was greater than 100000 nM in series [4] and 41 nM in series [5].

With `Nc1noc2c(N3CC[C@@H](NC(=O)c4ccc(-n5cnc(CCO)c5)cc4Cl)C3)ncc(Cl)c12`, the Papp at 5 h, 5 µM in series [1] came out at 1.6 ×10⁻⁶ cm/s. This molecule registered a fraction unbound at 4 h, 10 µM in series [2] of 0.005. Moreover, the 2aPTT in series [3] was 57 µM. Moreover, the IC50 was greater than 100000 nM in series [4] and 13 nM in series [5]. Besides, the Cmax in series [6] came to 210 ng/mL.

On to `Nc1noc2c(N3CC[C@@H](NC(=O)c4ccc(-n5cnnc5C(F)F)cc4Cl)C3)ncc(Cl)c12`, for which the Papp at 5 h, 5 µM in series [1] was 2.7 ×10⁻⁶ cm/s. In series [2], this molecule gave a fraction unbound at 4 h, 10 µM of 0.012. Further, in series [3], the 2aPTT was 32 µM. Besides, the IC50 is greater than 100000 nM in series [4] and 45 nM in series [5]. In addition, the peak level in series [6] (Cmax) was 100 ng/mL.

For `Cc1cc(N2CCC(NC(=O)c3ccc(-n4cnnc4)cc3Cl)C2)c2onc(N)c2c1` (racemic), the IC50 in series [4] is greater than 100000 nM; in series [5], 50 nM.

`Cc1ncn(-c2ccc(C(=O)N[C@@H]3CCN(c4ncc(Cl)c5c(N)noc45)C3)c(Cl)c2)n1`: the Papp at 5 h, 5 µM in series [1] came to 11.6 ×10⁻⁶ cm/s. Further, in series [2], the fraction unbound at 4 h, 10 µM is 0.002. In series [3], the 2aPTT stood at 113 µM. In addition, the IC50 was greater than 100000 nM in series [4] and 33 nM in series [5]. The molecule also yielded a peak concentration (Cmax) in series [6] of 330 ng/mL.

For the molecule `O=C(NC[C@H]1CN(c2ccc(N3CCOCC3=O)cc2)C(=O)O1)c1ccc(Cl)s1`, the result in series [7] and in series [8] was Active.

Regarding `Cn1ncn(-c2ccc(C(=O)N[C@@H]3CCN(c4ncc(Cl)c5c(N)noc45)C3)c(Cl)c2)c1=O`, in series [1], the Papp at 5 h, 5 µM amounted to 10.3 ×10⁻⁶ cm/s. In series [2], the fraction unbound at 4 h, 10 µM was 0.016. Further, the 2aPTT in series [3] came out at 13 µM. Further, the IC50 is greater than 100000 nM in series [4] and 15 nM in series [5]. In series [6], this molecule displayed a Cmax of 390 ng/mL.

For `Cn1cc(-c2ccc(C(=O)N[C@@H]3CCN(c4ncc(Cl)c5c(N)noc45)C3)c(Cl)c2)cnc1=O`, in series [1], the Papp at 5 h, 5 µM was determined as 0.7 ×10⁻⁶ cm/s. In series [2], this molecule had a fraction unbound at 4 h, 10 µM of 0.017. In addition, the 2aPTT in series [3] amounted to 47 µM. For the same molecule, the values for the IC50 in series [4] and in series [5] were 26000 nM and 36 nM, respectively.

On to `Nc1noc2c(N3CC[C@@H](NC(=O)c4ccc(-n5cnnc5)cc4Cl)C3)ncc(Cl)c12`, for which the Papp at 5 h, 5 µM in series [1] came to 0.7 ×10⁻⁶ cm/s. Further, in series [2], the fraction unbound at 4 h, 10 µM came out at 0.012. For the same molecule, the values for the IC50 in series [4] and in series [5] were 78000 nM and 31 nM, respectively. This molecule gave a Cmax in series [6] of 120 ng/mL.
